This note sets out measurements from ChEMBL document CHEMBL1268952, “Design, synthesis, and evaluation of indolinones as inhibitors of the transforming growth factor β receptor I (TGFβRI)” (J Med Chem, 2010).

The target in assay [1] is T1, TGF-beta receptor type-1 (Homo sapiens, UniProt P36897).
T1 sequence (P36897 whole entry): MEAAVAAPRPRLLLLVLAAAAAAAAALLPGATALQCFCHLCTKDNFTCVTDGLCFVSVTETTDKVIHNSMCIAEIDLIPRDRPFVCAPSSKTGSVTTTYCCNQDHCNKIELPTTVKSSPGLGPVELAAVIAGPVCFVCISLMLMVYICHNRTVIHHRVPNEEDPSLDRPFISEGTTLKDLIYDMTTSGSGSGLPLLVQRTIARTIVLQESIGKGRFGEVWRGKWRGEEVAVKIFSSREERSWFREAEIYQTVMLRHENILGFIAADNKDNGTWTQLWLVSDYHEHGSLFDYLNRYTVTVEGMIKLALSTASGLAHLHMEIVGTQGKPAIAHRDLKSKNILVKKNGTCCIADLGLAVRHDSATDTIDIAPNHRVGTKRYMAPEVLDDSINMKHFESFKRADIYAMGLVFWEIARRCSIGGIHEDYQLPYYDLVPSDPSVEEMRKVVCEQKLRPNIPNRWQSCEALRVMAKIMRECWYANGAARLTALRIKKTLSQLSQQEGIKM
Put plainly: Inhibition of TGFbeta receptor in human HaCaT cells assessed as Smad phosphorylation by ELISA. Format: cell-based.

For assay [2], the target named is T2, Mitogen-activated protein kinase 13 (Homo sapiens) (UniProt O15264).
T2 sequence (whole entry): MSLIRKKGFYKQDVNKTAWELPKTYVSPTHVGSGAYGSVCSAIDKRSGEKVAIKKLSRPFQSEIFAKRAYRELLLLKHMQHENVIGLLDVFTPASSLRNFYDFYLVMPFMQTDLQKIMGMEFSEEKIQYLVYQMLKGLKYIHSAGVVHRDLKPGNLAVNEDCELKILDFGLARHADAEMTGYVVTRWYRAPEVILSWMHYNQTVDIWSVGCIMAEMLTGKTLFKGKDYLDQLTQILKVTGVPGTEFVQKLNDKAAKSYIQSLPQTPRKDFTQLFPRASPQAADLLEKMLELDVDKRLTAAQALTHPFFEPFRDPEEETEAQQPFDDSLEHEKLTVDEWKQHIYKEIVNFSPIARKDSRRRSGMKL
The assay is described as follows: Inhibition of p38delta at 1 uM; values are per cent of control.

Assay [3] concerns the target Mitogen-activated protein kinase 1 (Homo sapiens) (UniProt P28482). The assay is described as follows: Inhibition of ERK2 at 1 uM; values are per cent of control.
Assay [4] deals with T1, TGF-beta receptor type-1. Put plainly: Inhibition of TGFbeta receptor.
Assay [5] deals with Platelet-derived growth factor receptor alpha (Homo sapiens, UniProt P16234). Put plainly: Inhibition of PDGFRalpha.
Platelet-derived growth factor receptor alpha, sequence (P16234 whole entry): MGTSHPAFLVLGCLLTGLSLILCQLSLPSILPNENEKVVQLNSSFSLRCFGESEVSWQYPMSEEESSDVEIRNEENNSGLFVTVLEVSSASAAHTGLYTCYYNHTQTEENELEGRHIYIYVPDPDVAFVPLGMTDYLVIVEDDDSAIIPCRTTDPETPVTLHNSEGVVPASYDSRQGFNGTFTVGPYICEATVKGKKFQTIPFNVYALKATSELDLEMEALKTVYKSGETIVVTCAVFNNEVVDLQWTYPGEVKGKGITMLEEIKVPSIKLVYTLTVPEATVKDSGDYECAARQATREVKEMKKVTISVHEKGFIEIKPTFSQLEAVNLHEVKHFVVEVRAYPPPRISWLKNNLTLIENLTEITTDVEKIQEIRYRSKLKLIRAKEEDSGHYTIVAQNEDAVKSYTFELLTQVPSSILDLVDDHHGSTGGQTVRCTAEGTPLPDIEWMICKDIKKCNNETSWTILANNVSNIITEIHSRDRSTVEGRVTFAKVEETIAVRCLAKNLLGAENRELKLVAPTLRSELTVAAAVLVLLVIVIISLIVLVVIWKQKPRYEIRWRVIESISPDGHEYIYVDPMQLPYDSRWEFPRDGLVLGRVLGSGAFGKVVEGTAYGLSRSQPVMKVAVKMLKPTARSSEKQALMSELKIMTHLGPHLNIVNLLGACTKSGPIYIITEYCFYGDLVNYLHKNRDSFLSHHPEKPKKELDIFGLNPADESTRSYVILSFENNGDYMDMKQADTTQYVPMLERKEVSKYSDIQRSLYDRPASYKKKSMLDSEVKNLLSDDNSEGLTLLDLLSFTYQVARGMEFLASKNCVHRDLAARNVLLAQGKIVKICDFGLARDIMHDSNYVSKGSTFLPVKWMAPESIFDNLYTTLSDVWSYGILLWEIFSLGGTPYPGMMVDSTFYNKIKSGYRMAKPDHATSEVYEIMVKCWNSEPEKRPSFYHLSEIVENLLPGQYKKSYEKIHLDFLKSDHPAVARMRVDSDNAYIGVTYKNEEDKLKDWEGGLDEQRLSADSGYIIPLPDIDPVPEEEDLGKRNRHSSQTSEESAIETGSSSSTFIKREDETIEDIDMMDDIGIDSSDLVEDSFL
For assay [6], the target named is Dual specificity mitogen-activated protein kinase kinase 1 (Homo sapiens) (UniProt Q02750). Put plainly: Inhibition of MKK1 at 1 uM; values are per cent of control.
Dual specificity mitogen-activated protein kinase kinase 1 (Homo sapiens), sequence (Q02750 whole entry): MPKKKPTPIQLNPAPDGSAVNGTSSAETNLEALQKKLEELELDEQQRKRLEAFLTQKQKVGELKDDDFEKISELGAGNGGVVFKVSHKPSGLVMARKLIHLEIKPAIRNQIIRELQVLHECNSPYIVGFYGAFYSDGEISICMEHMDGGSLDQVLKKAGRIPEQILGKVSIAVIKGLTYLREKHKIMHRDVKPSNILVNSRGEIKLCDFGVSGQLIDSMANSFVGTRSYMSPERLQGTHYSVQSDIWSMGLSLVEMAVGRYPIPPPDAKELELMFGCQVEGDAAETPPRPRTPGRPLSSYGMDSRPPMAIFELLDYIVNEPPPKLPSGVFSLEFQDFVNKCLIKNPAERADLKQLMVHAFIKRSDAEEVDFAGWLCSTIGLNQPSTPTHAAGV
Assay [7] concerns the target Dual specificity mitogen-activated protein kinase kinase 2 (Homo sapiens) (UniProt P36507). The assay is described as follows: Inhibition of MKK2 at 1 uM; values are per cent of control.
Assay [8] has as its target Ribosomal protein S6 kinase beta-1 (Homo sapiens) (UniProt P23443). Put plainly: Inhibition of S6K1 at 1 uM; values are per cent of control.
Assay [9] addresses Serine/threonine-protein kinase Nek6 (Homo sapiens) (UniProt Q9HC98). Put plainly: Inhibition of NEK6 at 1 uM; values are per cent of control.
The test system of a further assay is HaCaT. The assay is described as follows: Cytotoxicity against human HaCaT cells.
For assay [10], the target named is T3, Serine/threonine-protein kinase Sgk1 (Homo sapiens) (UniProt O00141).
T3 sequence (whole entry): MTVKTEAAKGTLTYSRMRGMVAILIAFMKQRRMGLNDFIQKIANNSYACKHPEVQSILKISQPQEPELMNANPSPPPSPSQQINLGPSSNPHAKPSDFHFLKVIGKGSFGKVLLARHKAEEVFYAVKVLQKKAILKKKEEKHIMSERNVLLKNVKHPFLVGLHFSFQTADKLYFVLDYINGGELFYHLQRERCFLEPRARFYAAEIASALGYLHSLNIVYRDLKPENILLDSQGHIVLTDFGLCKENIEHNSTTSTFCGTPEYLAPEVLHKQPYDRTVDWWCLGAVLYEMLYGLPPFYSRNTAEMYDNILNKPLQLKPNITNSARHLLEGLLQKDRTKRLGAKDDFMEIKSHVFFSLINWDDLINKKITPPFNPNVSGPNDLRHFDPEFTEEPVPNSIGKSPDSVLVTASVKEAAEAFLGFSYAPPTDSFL
Put plainly: Inhibition of SGK at 1 uM; values are per cent of control.

For assay [11], the target named is Proto-oncogene tyrosine-protein kinase Src (Homo sapiens) (UniProt P12931). The assay is described as follows: Inhibition of Src at 2 uM.
Proto-oncogene tyrosine-protein kinase Src (Homo sapiens), sequence (P12931 2-536 limits assumed): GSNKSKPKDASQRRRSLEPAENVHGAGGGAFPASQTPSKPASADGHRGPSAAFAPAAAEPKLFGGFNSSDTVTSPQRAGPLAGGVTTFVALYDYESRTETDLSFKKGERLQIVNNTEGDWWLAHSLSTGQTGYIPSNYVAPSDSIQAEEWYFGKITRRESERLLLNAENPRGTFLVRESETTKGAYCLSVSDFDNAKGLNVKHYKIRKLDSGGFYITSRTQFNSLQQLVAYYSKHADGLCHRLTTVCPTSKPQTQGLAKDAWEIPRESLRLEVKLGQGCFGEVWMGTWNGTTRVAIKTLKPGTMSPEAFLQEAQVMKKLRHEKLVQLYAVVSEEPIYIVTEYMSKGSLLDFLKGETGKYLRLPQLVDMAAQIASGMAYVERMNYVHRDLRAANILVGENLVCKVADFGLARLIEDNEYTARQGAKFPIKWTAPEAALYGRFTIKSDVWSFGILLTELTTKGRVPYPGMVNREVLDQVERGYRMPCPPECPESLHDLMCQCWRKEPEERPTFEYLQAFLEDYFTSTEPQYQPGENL
For assay [12], the target named is Mitogen-activated protein kinase 14 (Homo sapiens) (UniProt Q16539). Put plainly: Inhibition of p38alpha at 1 uM; values are per cent of control.
Mitogen-activated protein kinase 14 (Homo sapiens), sequence (Q16539 whole entry): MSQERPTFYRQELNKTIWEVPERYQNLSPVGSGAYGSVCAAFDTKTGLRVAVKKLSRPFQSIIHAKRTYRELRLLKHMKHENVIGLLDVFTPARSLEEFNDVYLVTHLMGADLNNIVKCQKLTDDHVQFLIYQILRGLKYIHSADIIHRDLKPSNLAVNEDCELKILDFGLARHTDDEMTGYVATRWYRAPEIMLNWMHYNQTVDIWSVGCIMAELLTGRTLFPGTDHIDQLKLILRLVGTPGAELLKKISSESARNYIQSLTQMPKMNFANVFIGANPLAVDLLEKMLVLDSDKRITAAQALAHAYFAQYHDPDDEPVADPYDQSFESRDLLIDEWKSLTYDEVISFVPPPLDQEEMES
Assay [13] has as its target Mitogen-activated protein kinase 11 (Homo sapiens) (UniProt Q15759). Put plainly: Inhibition of p38beta2 at 1 uM; values are per cent of control.
The target of the next assay is TGF-beta receptor type-2 (Homo sapiens, UniProt P37173). The assay is described as follows: Inhibition of TGFbeta2 receptor.
The target of assay [14] is Bone morphogenetic protein receptor type-2 (Homo sapiens, UniProt Q13873). Put plainly: Inhibition of BMPR2.
Assay [15] deals with Mitogen-activated protein kinase 12 (Homo sapiens) (UniProt P53778). The assay is described as follows: Inhibition of p38-gamma at 1 uM; values are per cent of control.
Mitogen-activated protein kinase 12 (Homo sapiens), sequence (P53778 whole entry): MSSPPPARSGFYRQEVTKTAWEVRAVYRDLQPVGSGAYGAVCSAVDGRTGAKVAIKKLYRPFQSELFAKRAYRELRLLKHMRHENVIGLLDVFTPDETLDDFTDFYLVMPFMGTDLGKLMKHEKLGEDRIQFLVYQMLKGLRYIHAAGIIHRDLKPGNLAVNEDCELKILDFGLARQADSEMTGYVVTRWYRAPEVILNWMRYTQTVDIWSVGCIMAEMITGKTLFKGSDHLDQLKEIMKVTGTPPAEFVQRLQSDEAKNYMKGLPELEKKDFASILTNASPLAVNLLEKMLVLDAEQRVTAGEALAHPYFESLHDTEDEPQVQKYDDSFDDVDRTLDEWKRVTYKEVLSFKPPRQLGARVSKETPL

Dual specificity mitogen-activated protein kinase kinase 2 (Homo sapiens), sequence (P36507 whole entry): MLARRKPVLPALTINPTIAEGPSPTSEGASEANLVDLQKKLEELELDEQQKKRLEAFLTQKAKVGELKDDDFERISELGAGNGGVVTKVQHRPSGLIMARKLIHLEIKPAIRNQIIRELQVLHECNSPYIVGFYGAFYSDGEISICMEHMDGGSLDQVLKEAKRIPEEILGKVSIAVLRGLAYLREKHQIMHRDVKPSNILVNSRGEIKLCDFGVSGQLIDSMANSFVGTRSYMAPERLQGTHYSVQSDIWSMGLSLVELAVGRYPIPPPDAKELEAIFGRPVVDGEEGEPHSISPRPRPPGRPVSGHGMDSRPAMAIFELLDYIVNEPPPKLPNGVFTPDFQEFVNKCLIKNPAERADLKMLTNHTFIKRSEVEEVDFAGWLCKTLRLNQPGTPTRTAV
Serine/threonine-protein kinase Nek6 (Homo sapiens), sequence (Q9HC98 whole entry): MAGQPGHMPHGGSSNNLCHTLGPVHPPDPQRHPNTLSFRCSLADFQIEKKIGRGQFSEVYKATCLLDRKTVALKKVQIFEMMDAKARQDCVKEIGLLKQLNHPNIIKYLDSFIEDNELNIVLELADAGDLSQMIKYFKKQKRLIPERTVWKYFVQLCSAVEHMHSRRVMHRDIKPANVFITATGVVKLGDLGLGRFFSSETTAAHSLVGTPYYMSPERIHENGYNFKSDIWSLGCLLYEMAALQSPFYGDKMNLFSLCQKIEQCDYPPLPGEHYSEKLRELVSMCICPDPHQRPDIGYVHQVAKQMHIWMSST
Mitogen-activated protein kinase 1 (Homo sapiens), sequence (P28482 whole entry): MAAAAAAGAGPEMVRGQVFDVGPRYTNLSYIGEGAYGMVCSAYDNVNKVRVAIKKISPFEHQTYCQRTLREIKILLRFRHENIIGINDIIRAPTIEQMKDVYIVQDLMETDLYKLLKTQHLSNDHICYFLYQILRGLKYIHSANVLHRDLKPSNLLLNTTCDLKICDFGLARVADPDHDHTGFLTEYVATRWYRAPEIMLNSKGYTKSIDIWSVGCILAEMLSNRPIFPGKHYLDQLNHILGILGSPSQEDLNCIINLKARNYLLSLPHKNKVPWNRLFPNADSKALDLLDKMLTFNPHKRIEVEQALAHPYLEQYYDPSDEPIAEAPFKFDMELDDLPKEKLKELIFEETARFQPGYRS
Ribosomal protein S6 kinase beta-1 (Homo sapiens), sequence (P23443 whole entry, looked up): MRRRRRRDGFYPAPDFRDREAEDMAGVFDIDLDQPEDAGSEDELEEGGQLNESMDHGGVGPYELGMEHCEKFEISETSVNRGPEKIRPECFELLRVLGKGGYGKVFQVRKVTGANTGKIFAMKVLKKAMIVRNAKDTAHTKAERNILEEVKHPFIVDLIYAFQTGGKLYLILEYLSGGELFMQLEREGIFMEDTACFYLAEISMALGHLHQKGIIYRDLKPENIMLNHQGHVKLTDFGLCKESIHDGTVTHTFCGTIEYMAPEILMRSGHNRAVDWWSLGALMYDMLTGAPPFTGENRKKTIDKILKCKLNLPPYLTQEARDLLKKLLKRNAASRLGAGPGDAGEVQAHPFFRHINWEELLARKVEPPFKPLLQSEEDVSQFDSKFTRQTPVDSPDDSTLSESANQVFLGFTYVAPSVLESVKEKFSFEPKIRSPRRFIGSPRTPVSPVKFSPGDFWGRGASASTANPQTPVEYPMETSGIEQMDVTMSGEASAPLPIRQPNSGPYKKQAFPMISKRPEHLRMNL
Mitogen-activated protein kinase 11 (Homo sapiens), sequence (Q15759 whole entry): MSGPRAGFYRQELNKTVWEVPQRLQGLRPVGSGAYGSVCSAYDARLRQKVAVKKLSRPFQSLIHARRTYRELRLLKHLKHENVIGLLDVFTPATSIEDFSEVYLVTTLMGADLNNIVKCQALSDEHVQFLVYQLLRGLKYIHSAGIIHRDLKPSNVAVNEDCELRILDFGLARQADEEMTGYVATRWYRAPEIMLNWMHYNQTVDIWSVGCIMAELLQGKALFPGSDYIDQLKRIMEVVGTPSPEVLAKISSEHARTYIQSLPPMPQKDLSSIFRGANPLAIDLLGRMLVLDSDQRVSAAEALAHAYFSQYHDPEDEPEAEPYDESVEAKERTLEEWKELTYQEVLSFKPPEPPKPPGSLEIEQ

Consider `CCNCc1ccc(N/C(=C2\C(=O)Nc3cc(C(=O)N(C)CC)ccc32)c2ccccc2)cc1`, for which the EC50 on TGF-beta receptor type-1 [1] turned out to be 160 nM. In addition, the residual activity in assay [2] is 86%; in [3], 87%; in [6] it was 61%; in assay [7], 97%; in [8], 89%; in [9] it was 92%. In addition, the residual activity in assay [10] worked out at 106%; in [11], 61%; in assay [12] it was 85%. Further, the IC50 was 32 nM against TGF-beta receptor type-1 [4], 1100 nM in assay [5] and over 1000 nM in the assay on HaCaT.
Turning to `CCN(C)C(=O)c1ccc2c(c1)NC(=O)/C2=C(\Nc1ccc(CN2CCCCC2)cc1)c1ccccc1`, at TGF-beta receptor type-1 [1], the EC50 was 105 nM. Moreover, the residual activity in [2] worked out at 108%; in [13], 98%; in assay [3] it was 96%; in [6] it was 48%; in assay [7], 102%; in assay [8] it was 96%. Further, the residual activity in assay [9] stood at 88%; in assay [10], 123%; in assay [11], 86%; in [15], 93%; in assay [12] it was 92%. Also, the IC50 in assay [5] was 890 nM; at TGF-beta receptor type-2, 19000 nM; in [14] it was over 50000 nM; in the assay on HaCaT, over 1000 nM.
As for `CN(C)C(=O)c1ccc2c(c1)/C(=C(/Nc1ccc(CN3CCCCC3)cc1)c1ccccc1)C(=O)N2`, the EC50 on TGF-beta receptor type-1 [1] was determined as 198 nM. The residual activity in assay [2] came out at 99%; in assay [13], 100%; in [3], 95%; in [6] it was 12%; in assay [7], 94%; in assay [8], 76%. The residual activity in assay [9] stood at 87%; in assay [10], 68%; in assay [15], 91%; in assay [12], 91%. The IC50 on TGF-beta receptor type-1 [4] is 186 nM; with HaCaT, over 1000 nM.
For the molecule `CCNC(=O)c1ccc2c(c1)NC(=O)/C2=C(\Nc1ccc(N(CCN(C)C)S(C)(=O)=O)cc1)c1ccccc1`, the EC50 on TGF-beta receptor type-1 [1] came to 108 nM. Besides, the residual activity in assay [3] worked out at 104%; in assay [6], 53%; in assay [8] it was 100%; in assay [9] it was 118%; in assay [10] it was 107%; in assay [12], 110%. For the same molecule, the figures for the IC50 (on TGF-beta receptor type-1 [4]; in assay [5]) were 1 nM and 74 nM, respectively.
`O=C1Nc2ccccc2/C1=C(/Nc1ccc(CN2CCCCC2)cc1)c1ccccc1`: the residual activity in [3] was determined as 77%; in assay [6], 4%; in [7], 75%; in assay [8], 12%; in assay [9], 86%; in assay [10], 20%. Further, in assay [12], the residual activity was 96%. The IC50 at TGF-beta receptor type-1 [4] turned out to be 3460 nM.
Take `CCNC(=O)c1ccc2c(c1)NC(=O)/C2=C(\Nc1ccc(CN(C)C)cc1)c1ccccc1`: the EC50 at TGF-beta receptor type-1 [1] came out at 185 nM. Besides, the residual activity in assay [3] came out at 98%; in [6], 59%; in [8], 101%; in [9], 123%; in assay [10], 124%; in assay [11] it was 86%. For the same molecule, the residual activity in assay [12] turned out to be 121%. The IC50 against TGF-beta receptor type-1 [4] was 19 nM; in assay [5], 99 nM; in the assay with HaCaT it was over 1000 nM.
